The record followed here is patent US11219614B2, “Combination cancer therapy with pentaaza macrocyclic ring complex and ascorbate compound” (Galera Labs, LLC, priority 2016, dated 2022).

Test [1] has as its system head and neck squamous cell carcinoma cells (SCC25). In words: clonogenic cell survival assay, SCC25. It is filed as cell-based, Human. The following applies: ascorbate 1 h in combination with 5, 10 or 20 μM GC4419 24 h, both present at the same time; compared to monotherapies or sequential treatment with media replacement; FIG. 3. As for the experimental part:
FIG. 3 is a plot showing the surviving fraction of SCC25 cells for increasing amounts of ascorbate, as determined by a clonogenic cell survival assay used to determine the effects of the compound alone and in combination with a pentaaza macrocyclic ring complex (GC4419). Human head and neck squamous cell carcinoma cells (SCC25) were exponentially grown in culture for 24 hours. The cells were then treated with 5-20 μM GC4419 for 24 hours and ascorbate (Asc) for one hour, followed by immediate clonogenic assay. The cells were trypsinized, counted, replated at varying lower densities and incubated. Plates were stained and counted for clonogenic survival assays.
The effect of ascorbate was tested in a clonogenic cell survival assay to determine the effects of the compound alone and in combination with a pentaaza macrocyclic ring complex (GC4419). Human head and neck squamous cell carcinoma cells (SCC25) were exponentially grown in culture for 24 hours. The cells were then treated with 5-20 μM GC4419 for 24 hours, and ascorbate (Asc) for one hour, followed by immediate clonogenic assay. The cells were trypsinized, counted, replated at varying lower densities and incubated. Plates were stained and counted for clonogenic survival assays.

The subject of test [2] is Non-small cell lung cancer cells (H1299). Put plainly: clonogenic cell survival assay, H1299. It is filed as cell-based. How it is done: (§1) FIG. 1 is a plot showing the surviving fraction of H1299 cells for increasing amounts of ascorbate, as determined by a clonogenic cell survival assay used to determine the effects of the compound alone and in combination with a pentaaza macrocyclic ring complex (GC4419). Non-small cell lung cancer cells (H1299) were exponentially grown in culture for 48 hours. The cells were then treated with 5-20 μM GC4419 for 24 hours and ascorbate (Asc) for one hour, followed immediately by clonogenic assay. The cells were trypsinized, counted, replated at varying lower densities and incubated. Plates were stained and counted for clonogenic survival assays.
as §1, with “FIG. 10” for “FIG. 1”, “with either the” for “with a”, “complex (GC4419) or the pentaaza macrocyclic ring complex (GC4401).” for “complex (GC4419).”, “with ascorbate (Asc) at the concentrations shown for one hour and either 10” for “with 5-20”, “GC4419 or 10 μM GC4401” for “GC4419”, “24 hours. After 24 hours, the” for “24 hours and ascorbate (Asc) for one hour, followed immediately by clonogenic assay. The”
FIG. 11 is a graph showing the surviving fraction of H1299 cells treated with ascorbate and combinations including ascorbate and/or auranofin. […] The cells were then trypsinized, counted, replated at varying lower densities and incubated. Plates were stained and counted for clonogenic survival assays.
The effect of ascorbate was tested in a clonogenic cell survival assay to determine the effects of the compound alone and in combination with a pentaaza macrocyclic ring complex (GC4419). […] The cells were trypsinized, counted, replated at varying lower densities and incubated. Plates were stained and counted for clonogenic survival assays.
The effect of ascorbate was tested in a clonogenic cell survival assay to determine the effects of the compound alone and in combination with the pentaaza macrocyclic ring complex (GC4419) and the pentaaza macrocyclic ring complex (GC4401). […] The cells were trypsinized, counted, replated at varying lower densities and incubated. Plates were stained and counted for clonogenic survival assays.
The effects of ascorbate in combination with a pentaaza macrocyclic ring complex (GC4419) was tested in a clonogenic cell survival assay to determine the effects of the combination alone and when paired with the thioredoxin reductase inhibitor auranofin. […] The cells were then trypsinized, counted, replated at varying lower densities and incubated. […]

Each structure is given as a SMILES string.

`[Cl][Mn][Cl].c1cc2nc(c1)CN[C@H]1CCCC[C@@H]1NCCN[C@H]1CCCC[C@@H]1NC2` [GC4419]: the “cell killing (clonogenic survival)” value in test [1] was “significant enhancements in cell killing”; in test [2] (1 μM auranofin 24 h + 10 μM GC4419 24 h + 10 pmol/cell ascorbate 1 h, compared to control, monotherapies and pairwise combinations, FIG. 11), “also resulted in significant enhancements in cell killing”; in test [2] (10 μM GC4419 24 h + 10 pmol/cell ascorbate 1 h, compared to control and monotherapies, FIG. 11), “significant enhancements in cell killing”; in test [2] (ascorbate 1 h in combination with 5 μM or 20 μM GC4419 24 h, compared to ascorbate or GC4419 monotherapies, FIG. 1) it was “significant enhancements in cell killing”; in test [2] (ascorbate 1 h in combination with 10 μM complex 24 h, compared to control, FIG. 10), “significant enhancements in cell killing”.
